Patent US6420137B1 (American Home Products Corporation, priority 1998, dated 2002)
Structures can show the parent of a compound that is named as a salt.

Experiments:
[1] = tested on: HNT2RS; assay: GTP sensitivity of [3H]NT binding, CHO-K1 membranes stably expressing HNT2RS; parameters: species or system human
Protocol: GTP sensitivity. These radioligand binding assays were performed in 96-well microtiter plates using 1×binding buffer (50 mM HEPES, pH 7.4, 10 mM MgCl2, 0.4% BSA, pH 7.4) containing protease inhibitors (5 μg/ml leupeptin, 5 μg/ml aprotinin, 100 μg/ml bacitracin, and 100 μg/ml benzamidine). […] Wells A1-6 were repeated for each membrane preparation to be tested for GTP sensitivity. Binding reactions were initiated by adding 5-100 μg of membrane protein in a 170 μl volume. Final reaction volume was 200 μl/well. The microtiter plate was placed on a rotary shaker at 200 rpm and incubated at room temperature for 2 hours. Free radioligand was separated from bound ligand by rapid filtration through a glass fiber (GF/C) filter plate pretreated with 0.3% polyethyleneimine using a Packard cell harvester. The filter plates were then washed several times with cold (4° C.) binding buffer lacking BSA. After the filter plates were dried in a 37° C. incubator for 2 hours, 25 μl Microscint scintillation fluid (Packard) was added to each well and the plate was counted in a Packard Top Count scintillation counter.

[2] = target: T1, HNT2R (Homo sapiens, UniProt O95665); assay: GTP sensitivity of [3H]NT binding, CHO-K1 membranes stably expressing HNT2R
T1 construct: The HindIII and XbaI digested full-length receptor cDNAs were inserted into the pRC/CMV (Invitrogen) vector; expressed in transfected cells; host or cells: GH4C1 (rat pituitary) membranes for A6 and A8; CHO-K1 membranes for A9; SK-N-MC whole cells for A11
T1 sequence (O95665 whole entry): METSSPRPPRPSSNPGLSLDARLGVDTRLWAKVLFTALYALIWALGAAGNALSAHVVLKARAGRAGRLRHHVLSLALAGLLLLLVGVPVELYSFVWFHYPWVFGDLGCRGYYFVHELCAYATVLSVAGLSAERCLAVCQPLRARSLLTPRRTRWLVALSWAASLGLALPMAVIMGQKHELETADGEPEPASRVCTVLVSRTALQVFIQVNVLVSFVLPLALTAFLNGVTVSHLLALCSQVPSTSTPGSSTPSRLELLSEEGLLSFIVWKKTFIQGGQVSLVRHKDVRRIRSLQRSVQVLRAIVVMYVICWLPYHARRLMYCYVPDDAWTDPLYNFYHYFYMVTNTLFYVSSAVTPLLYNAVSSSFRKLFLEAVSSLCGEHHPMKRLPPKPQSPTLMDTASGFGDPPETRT

[3] = tested on: neurotensin receptor subtypes NT1R, NT2R, NT3R; conditions: cited from earlier work
[4] = target: H1-histamine receptors (Homo sapiens, UniProt P35367); conditions: cited from earlier work
H1-histamine receptors, sequence (P35367 whole entry): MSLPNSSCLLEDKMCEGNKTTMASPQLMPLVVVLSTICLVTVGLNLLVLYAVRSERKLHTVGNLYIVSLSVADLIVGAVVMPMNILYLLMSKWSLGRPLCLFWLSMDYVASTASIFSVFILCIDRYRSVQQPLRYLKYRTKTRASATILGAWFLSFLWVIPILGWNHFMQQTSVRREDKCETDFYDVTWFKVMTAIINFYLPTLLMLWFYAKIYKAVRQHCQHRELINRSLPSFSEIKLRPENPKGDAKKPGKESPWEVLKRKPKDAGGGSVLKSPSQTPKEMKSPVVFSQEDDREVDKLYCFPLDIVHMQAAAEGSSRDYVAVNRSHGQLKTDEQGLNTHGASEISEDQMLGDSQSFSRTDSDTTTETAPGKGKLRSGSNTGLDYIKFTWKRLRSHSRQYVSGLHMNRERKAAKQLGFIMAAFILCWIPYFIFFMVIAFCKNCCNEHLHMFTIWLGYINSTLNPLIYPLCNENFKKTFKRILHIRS

[5] = tested on: fasted ob/ob males; assay: Effect of AcNT(8-13) on appetite / food consumption in mouse models of obesity; type: in vivo
Source text: (§1) Obesity is associated with decreased metabolic energy expenditure and increased metabolic efficiency. Increasing metabolic energy expenditure (thermogenesis) is a desirable characteristic of anti-obesity targets.

[6] = tested on: HNT2RS; assay: Competition of [3H]neurotensin binding, membranes from GH4C1 cells stably expressing HNT2RS; parameters: species or system human; conditions: HNT2RS (short form), FIG. 1B
Protocol: (§2) A: Binding to membranes from GH4C1 cells stably expressing HNT2RL. B: Binding to membranes from GH4C1 cells stably expressing HNT2RS.
The adherent cells were removed from the plates with PBS and 2 mM EDTA, pelleted by centrifugation at 1,500×g for 10 minutes at 4° C., and resuspended in ice cold homogenization buffer (1 mM sodium bicarbonate, 1 mM EDTA, 1 mM EGTA, pH 7.2) containing 1×protease inhibitors (5 μg/ml leupeptin, 5 μug/ml aprotinin, 100 μg/ml bacitracin, and 100 μg/ml benzamidine). After 10 minutes on ice, the cells were lysed by dounce homogenizing for 20 strokes in a glass/glass homogenizer. The cell lysate was centrifuged at 1,500×g for 10 minutes at 4° C. to remove the nuclei and cell debris and the supernatant containing the cell membranes were harvested by centrifugation at 20,000×g for 30 minutes at 4° C. The membrane pellet was resuspended in 1×homogenization buffer containing 1×protease inhibitors and once again pelleted. The membrane pellet was then resuspended at 1-5 mg/ml in 25 mM Tris, pH 7.4 and either directly used in binding assays or frozen (−80° C.) in small aliquots for future use.
Radioligand binding assays: competition binding. All radioligand binding assays were performed in 96-well microtiter plates using 1×binding buffer (50 mM HEPES, pH 7.4, 10 mM MgCl2, 0.2% BSA, pH 7.4) containing protease inhibitors (5 μg/ml leupeptin, 5 μmg/ml aprotinin, 100 μg/ml bacitracin, and 100 μg/ml benzamidine). […] Binding reactions were initiated by adding 5-100 μg of membrane protein in a 170 μl volume. Final reaction volume was 200 μl/well.
The microtiter plate was placed on a rotary shaker at 200 rpm and incubated at room temperature for 2 hours. Free radioligand was separated from bound ligand by rapid filtration through a glass fiber (GF/C) filter plate pretreated with 0.3% polyethyleneimine for 30 minutes) using a Packard cell harvester. […] After the filter plates were dried in a 37° C. incubator for 2 hours, 25 μl Microscint scintillation fluid (Packard) was added to each well and the plate was counted in a Packard Top Count scintillation counter.

[7] = target: T2, HNT2RL (Homo sapiens, UniProt O95665); assay: Competition of [3H]neurotensin binding, membranes from GH4C1 cells stably expressing HNT2RL; conditions: HNT2RL (long form), FIG. 1A
T2 construct: The HindIII and XbaI digested full-length receptor cDNAs were inserted into the pRC/CMV (Invitrogen) vector; expressed in transfected cells; host or cells: GH4C1 (rat pituitary) membranes for A6 and A8; CHO-K1 membranes for A9; SK-N-MC whole cells for A11
T2 sequence (O95665 whole entry): as the sequence (O95665 whole entry) above
Protocol: as §2
The adherent cells were removed from the plates with PBS and 2 mM EDTA, pelleted by centrifugation at 1,500×g for 10 minutes at 4° C., and resuspended in ice cold homogenization buffer (1 mM sodium bicarbonate, 1 mM EDTA, 1 mM EGTA, pH 7.2) containing 1×protease inhibitors (5 μg/ml leupeptin, 5 μug/ml aprotinin, 100 μg/ml bacitracin, and 100 μg/ml benzamidine). After 10 minutes on ice, the cells were lysed by dounce homogenizing for 20 strokes in a glass/glass homogenizer. The cell lysate was centrifuged at 1,500×g for 10 minutes at 4° C. to remove the nuclei and cell debris and the supernatant containing the cell membranes were harvested by centrifugation at 20,000×g for 30 minutes at 4° C. The membrane pellet was resuspended in 1×homogenization buffer containing 1×protease inhibitors and once again pelleted. […]
The microtiter plate was placed on a rotary shaker at 200 rpm and incubated at room temperature for 2 hours. […] After the filter plates were dried in a 37° C. incubator for 2 hours, 25 μl Microscint scintillation fluid (Packard) was added to each well and the plate was counted in a Packard Top Count scintillation counter.

[8] = Acute metabolic responses to AcNT(8-13): lipolysis, oxygen consumption; type: in vivo; conditions: administered acutely
Source text: as §1

Nc1nc2c(ncn2[C@@H]2O[C@H](COP(=O)(O)OP(=O)(O)OP(O)(O)=S)[C@@H](O)[C@H]2O)c(=O)[nH]1 [GTPγS]
% Decrease in [3H]NT Bound in Presence of 100 μM GTPγS [1]: 35.3%
% Decrease in [3H]NT Bound in Presence of 100 μM GTPγS [2]: 51.5%

c1ccncc1 [Pyridine, pyridine]
binding to NTR subtypes [3]: not to any NTR subtypes
binding to H1-histamine receptors [4]: high affinity binding
block of AcNT(8-13)-mediated appetite suppression ([5]; antihistamine at 1 mg/kg): did not block

COc1cccc(OC)c1-c1cc(C(=O)NC2(C(=O)O)C3CC4CC(C3)CC2C4)nn1-c1ccnc2cc(Cl)ccc12 (centres unmarked) [SR48692]
competition of [3H]neurotensin binding [6]: competed at a concentration about two orders of magnitude higher
competition of [3H]neurotensin binding [7]: competed at a concentration about two orders of magnitude higher

COc1cccc(OC)c1-c1cc(C(=O)NC2(C(=O)O)C3CC4CC(C3)CC2C4)nn1-c1ccc(C(=O)N(C)CCCN(C)C)cc1C(C)C.Cl (centres unmarked) [SR142948]
affinity for the NT1R and NT2R subtypes [3]: comparable affinity

C[C@@H]1CN([C@H]2CC[C@](C#N)(c3ccc(F)cc3)CC2)CC[C@]1(C(=O)O)c1ccccc1 [levocabastine, (−)-{3S-[1(cis)-3α4β]}-1-{4-cyano-4-(4-fluoro-phenyl)-cyclohexyl)}-3-methyl-4-phenyl-4-piperidene-carboxylic acid monohydrochloride]
binding to the NT2R subtype [3]: high affinity
selectivity for the NT2R over the NT1R and NT3R subtypes [3]: 1000 fold
reversal of the suppression of food intake mediated by AcNT(8-13) ([5]; animals pretreated with antagonist, 50 μg/kg AcNT(8-13)): completely reversed

AcNT(8-13): N-acetylated form of the carboxyl terminal 6 amino acids of neurotensin (8-13)
binding affinity compared with the 13 amino acid form of neurotensin [3]: identical
competition of [3H]neurotensin binding [6]: equally well
food consumption ([5]; AcNT(8-13) i.p., fasted ob/ob males): biphasic suppression of food consumption
suppression of food consumption ([5]; administered acutely): 40-60%
lipolytic effects (NEFAs and glycerol) [8]: elevated NEFAs and glycerol
oxygen consumption [8]: increased

NT(9-13): neurotensin (9-13) fragment, a neurotensin receptor binding partner
competition of [3H]neurotensin binding [6]: bound with lower affinity

[^3H]NT: tritiated neurotensin radioligand (New England Nuclear, 100 Ci/mmol)
Specific [3H]NT Bound in Presence of 100 μM GTPγS [1]: 451 cpm
Specific [3H]NT Bound ([1]; no GTPγS): 697 cpm
